In brackets after ≈: the same amount, converted by molar mass. Counter-ions that a name gives are not always drawn.
The molecules below were run on H37Rv strain of M. tuberculosis (assay: Alamar Blue Susceptibility Test (MABA)). Conditions: H37Rv strain of M. tuberculosis; Alamar Blue.
Format: cell-based

For `Nc1nc(N)c2ccccc2n1` [Comparative compound 2, Quinazoline-2,4-diamine, reference compound], the “MABA (TB growth inhibition, colourimetric assay)” value was “−”.
`c1ccc2c(NC34CC5CC(CC(C5)C3)C4)nc(N3CCOCC3)nc2c1` [Compound 61, N-(1′-Adamantyl)-2-(morpholino)quinazolin-4-amine] was tested, and the “MABA (TB growth inhibition, colourimetric assay)” value was “+++ (10-50 μM=+++)”.

Same assay, conditions: Mycobacterium tuberculosis; H37Rv strain of M. tuberculosis; Alamar Blue; read-out: MABA (TB growth inhibition, colourimetric assay)

`O=[N+]([O-])c1ccc(NCCNc2nc(N3CCOCC3)nc3ccccc23)cc1` [Compound 7, N^1-(2-Morpholinoquinazolin-4-yl)-N^2-(4-nitrophenyl)ethane-1,2-diamine] and `CN1CCN(c2nc(NCCNc3ccc([N+](=O)[O-])cc3)c3ccccc3n2)CC1` [Compound 11, N^1-(2-(4-Methylpiperazin-1-yl)quinazolin-4-yl)-N^2-(4-nitrophenyl)ethane-1,2-diamine] fall in the same range of MIC: 50 to 128 µM (≈ 19.7 to 50.5 µg/mL) for the first, 50 to 128 µM (≈ 20.4 to 52.2 µg/mL) for the second.

Compared with `c1ccc(CNc2nc(Nc3ccccc3)nc3ccccc23)cc1` [Compound 23, N^4-Benzyl-N^2-phenylquinazoline-2,4-diamine], `O=C(Nc1nc(NCc2ccccc2)c2ccccc2n1)c1ccccc1` [Compound 73, N-(4-(Benzylamino)quinazolin-2-yl)benzamide] is higher in MIC: 10 to 50 µM (≈ 3.26 to 16.3 µg/mL) for the first, 50 to 128 µM (≈ 17.7 to 45.4 µg/mL) for the second.

`CCN(CC)c1nc(NCc2ccccc2)c2ccccc2n1` [Compound 25, N^4-Benzyl-N^2,N^2-diethylquinazoline-2,4-diamine] and `CCCNc1nc(NCc2ccccc2)c2ccccc2n1` [Compound 67, N^4-Benzyl-N^2-propylquinazoline-2,4-diamine] fall in the same range of MIC: 10 to 50 µM (≈ 3.06 to 15.3 µg/mL) for the first, 10 to 50 µM (≈ 2.92 to 14.6 µg/mL) for the second.

`CCS(=O)(=O)N1CCN(c2nc(NCc3ccccc3)c3ccccc3n2)CC1` [Compound 26, N-Benzyl-2-(4-(ethylsulfonyl)piperazin-1-yl)quinazolin-4-amine] and `CCOC(=O)CN1CCN(c2nc(NCc3ccccc3)c3ccccc3n2)CC1` [Compound 27, Ethyl 2-(4-(4-(benzylamino)quinazolin-2-yl)piperazin-1-yl)acetate] fall in the same range of MIC: 50 to 128 µM (≈ 20.6 to 52.7 µg/mL) for the first, 50 to 128 µM (≈ 20.3 to 51.9 µg/mL) for the second.

`Cc1ccc(CNc2nc(NCc3ccccc3)c3ccccc3n2)cc1` [Compound 28, N^4-Benzyl-N^2-(4-methylbenzyl)quinazoline-2,4-diamine] and `CN(Cc1ccccc1)c1nc(NCc2ccccc2)c2ccccc2n1` [Compound 29, N^2,N^4-Dibenzyl-N^2-methylquinazoline-2,4-diamine] fall in the same range of MIC: 10 to 50 µM (≈ 3.54 to 17.7 µg/mL) for the first, 10 to 50 µM (≈ 3.54 to 17.7 µg/mL) for the second.

`CC(C)(C)OC(=O)N1CCN(c2nc(NCc3ccccc3)c3ccccc3n2)CC1` [Compound 31, tert-Butyl 4-(4-(benzylamino)quinazolin-2-yl)piperazine-1-carboxylate] and `CC(C)(C)OC(=O)N1CCCN(c2nc(NCc3ccccc3)c3ccccc3n2)CC1` [Compound 55, tert-Butyl 4-(4-(benzylamino)quinazolin-2-yl)-1,4-diazepane-1-carboxylate] fall in the same range of MIC: 10 to 50 µM (≈ 4.2 to 21 µg/mL) for the first, 10 to 50 µM (≈ 4.34 to 21.7 µg/mL) for the second.

First: C[C@H](Nc1nc(N2CCCCC2)nc2ccccc12)c1ccccc1 [Compound 32, (S)—N-(1-Phenylethyl)-2-(piperidin-1-yl)quinazolin-4-amine]
Second: c1ccc(Nc2nc(N3CCCCC3)nc3ccccc23)cc1 [Compound 72, N-Phenyl-2-(piperidin-1-yl)quinazolin-4-amine hydrochloride]
The MIC of the first is lower: 10 to 50 µM (≈ 3.32 to 16.6 µg/mL) for the first, 50 to 128 µM for the second.

`c1ccc(CNc2nc(N3CCCCC3)nc3ccccc23)nc1` [Compound 46, 2-(Piperidin-1-yl)-N-(pyridin-2-ylmethyl)quinazolin-4-amine] and `c1cncc(CNc2nc(N3CCCCC3)nc3ccccc23)c1` [Compound 47, 2-(Piperidin-1-yl)-N-(pyridin-3-ylmethyl)quinazolin-4-amine] fall in the same range of MIC: 50 to 128 µM (≈ 16 to 40.9 µg/mL) for the first, 50 to 128 µM (≈ 16 to 40.9 µg/mL) for the second.

`c1ccc(C(Nc2nc(N3CCCCC3)nc3ccccc23)c2ccccc2)cc1` [Compound 50, N-Benzhydryl-2-(piperidin-1-yl)quinazolin-4-amine] and `Cc1ccc([C@@H](C)Nc2nc(N3CCCCC3)nc3ccccc23)cc1` [Compound 101, (R)-2-(Piperidin-1-yl)-N-(1-p-tolylethyl)quinazolin-4-amine] fall in the same range of MIC: 10 to 50 µM (≈ 3.95 to 19.7 µg/mL) for the first, 10 to 50 µM (≈ 3.46 to 17.3 µg/mL) for the second.

First: c1ccc(CNc2nc(N3CCNCC3)nc3ccccc23)cc1 [Compound 51, N-Benzyl-2-(piperazin-1-yl)quinazolin-4-amine]
Second: c1ccc(CNc2nc(N3CCCOCC3)nc3ccccc23)cc1 [Compound 52, N-Benzyl-2-(1,4-oxazepan-4-yl)quinazolin-4-amine]
The MIC of the first is higher: 50 to 128 µM (≈ 16 to 40.9 µg/mL) for the first, 10 to 50 µM (≈ 3.34 to 16.7 µg/mL) for the second.

First: CC(C)C(=O)N1CCN(c2nc(NCc3ccccc3)c3ccccc3n2)CC1 [Compound 56, 1-(4-(4-(Benzylamino)quinazolin-2-yl)piperazin-1-yl)-2-methylpropan-1-one]
Second: CC(C)(C)C(=O)N1CCN(c2nc(NCc3ccccc3)c3ccccc3n2)CC1 [Compound 57, 1-(4-(4-(Benzylamino)quinazolin-2-yl)piperazin-1-yl)-2,2-dimethylpropan-1-one]
The MIC of the first is higher: 50 to 128 µM (≈ 19.5 to 49.9 µg/mL) for the first, 10 to 50 µM (≈ 4.04 to 20.2 µg/mL) for the second.

`O=C(c1ccccc1)N1CCN(c2nc(NCc3ccccc3)c3ccccc3n2)CC1` [Compound 58, 1-(4-(4-(Benzylamino)quinazolin-2-yl)piperazin-1-yl)(phenyl)methanone] and `Clc1ccc(CNc2nc(N3CCCC3)nc3ccccc23)cc1` [Compound 75, N-(4-Chlorobenzyl)-2-(pyrrolidin-1-yl)quinazolin-4-amine] fall in the same range of MIC: 10 to 50 µM (≈ 4.24 to 21.2 µg/mL) for the first, 10 to 50 µM (≈ 3.39 to 16.9 µg/mL) for the second.

`COc1cc2nc(N3CCCCC3)nc(NCc3ccccc3)c2cc1OC` [Compound 70, N-Benzyl-6,7-dimethoxy-2-(piperidin-1-yl)quinazolin-4-amine] and `Clc1ccc2nc(N3CCCCC3)nc(NCc3ccccc3)c2c1` [Compound 71, N-Benzyl-6-chloro-2-(piperidin-1-yl)quinazolin-4-amine] fall in the same range of MIC: 10 to 50 µM (≈ 3.78 to 18.9 µg/mL) for the first, 10 to 50 µM (≈ 3.53 to 17.6 µg/mL) for the second.

`Clc1ccc(CNc2nc(N3CCOCC3)nc3ccccc23)cc1` [Compound 74, N-(4-Chlorobenzyl)-2-morpholinoquinazolin-4-amine] and `FC(F)(F)c1ccc(CNc2nc(N3CCOCC3)nc3ccccc23)cc1` [Compound 77, 2-Morpholino-N-(4-(trifluoromethyl)benzyl)quinazolin-4-amine] fall in the same range of MIC: 10 to 50 µM (≈ 3.55 to 17.7 µg/mL) for the first, 10 to 50 µM (≈ 3.88 to 19.4 µg/mL) for the second.

`COc1ccccc1CNc1nc(N2CCCCC2)nc2ccccc12` [Compound 81, N-(2-Methoxybenzyl)-2-(piperidin-1-yl)quinazolin-4-amine hydrochloride] and `Cc1ccccc1CNc1nc(N2CCCCC2)nc2ccccc12` [Compound 104, N-(2-Methylbenzyl)-2-(piperidin-1-yl)quinazolin-4-amine hydrochloride] fall in the same range of MIC: 10 to 50 µM for the first, 10 to 50 µM for the second.

`COc1cccc(CNc2nc(N3CCCCC3)nc3ccccc23)c1` [Compound 82, N-(3-Methoxybenzyl)-2-(piperidin-1-yl)quinazolin-4-amine hydrochloride] and `Clc1cccc2nc(N3CCCCC3)nc(NCc3ccccc3)c12` [Compound 107, N-Benzyl-5-chloro-2-(piperidin-1-yl)quinazolin-4-amine] fall in the same range of MIC: 10 to 50 µM for the first, 10 to 50 µM (≈ 3.53 to 17.6 µg/mL) for the second.

`c1ccc2c(c1)CN(c1nc(N3CCCCC3)nc3ccccc13)C2` [Compound 85, 4-(Isoindolin-2-yl)-2-(piperidin-1-yl)quinazoline hydrochloride] and `c1ccc2c(c1)CC(Nc1nc(N3CCCCC3)nc3ccccc13)C2` [Compound 86, N-(2,3-Dihydro-1H-inden-2-yl)-2-(piperidin-1-yl)quinazolin-4-amine hydrochloride] fall in the same range of MIC: 10 to 50 µM for the first, 10 to 50 µM for the second.

`Cc1ccc(CCNc2nc(N3CCCCC3)nc3ccccc23)cc1` [Compound 87, N-(4-Methylphenethyl)-2-(piperidin-1-yl)quinazolin-4-amine hydrochloride] and `Cc1ccc(C(C)(C)Nc2nc(N3CCCCC3)nc3ccccc23)cc1` [Compound 102, 2-(Piperidin-1-yl)-N-(2-p-tolylpropan-2-yl)quinazolin-4-amine] fall in the same range of MIC: 10 to 50 µM for the first, 10 to 50 µM (≈ 3.61 to 18 µg/mL) for the second.

Compared with `c1ccc(N2CCN(c3nc(N4CCCCC4)nc4ccccc34)CC2)cc1` [Compound 88, 4-(4-Phenylpiperazin-1-yl)-2-(piperidin-1-yl)quinazoline], `Clc1ccc(N2CCN(c3nc(N4CCCCC4)nc4ccccc34)CC2)cc1` [Compound 89, 4-(4-(4-Chlorophenyl)piperazin-1-yl)-2-(piperidin-1-yl)quinazoline] is lower in MIC: 50 to 128 µM (≈ 18.7 to 47.8 µg/mL) for the first, 10 to 50 µM (≈ 4.08 to 20.4 µg/mL) for the second.

First: c1ccc(C2CCN(c3nc(N4CCCCC4)nc4ccccc34)CC2)cc1 [Compound 90, 4-(4-Phenylpiperidin-1-yl)-2-(piperidin-1-yl)quinazoline]
Second: c1ccc(CCCNc2nc(N3CCCCC3)nc3ccccc23)cc1 [Compound 95, N-(3-Phenylpropyl)-2-(piperidin-1-yl)quinazolin-4-amine]
The MIC of the first is higher: 10 to 50 µM (≈ 3.73 to 18.6 µg/mL) for the first, < 10 µM for the second.

`CC(C)(Nc1nc(N2CCCC2)nc2ccccc12)c1ccccc1` [Compound 91, N-(2-Phenylpropan-2-yl)-2-(pyrrolidin-1-yl)quinazolin-4-amine] and `Cc1ccc(C(C)(C)Nc2nc(N3CCCC3)nc3ccccc23)cc1` [Compound 103, 2-(Pyrrolidin-1-yl)-N-(2-p-tolylpropan-2-yl)quinazolin-4-amine] fall in the same range of MIC: 10 to 50 µM (≈ 3.32 to 16.6 µg/mL) for the first, 10 to 50 µM (≈ 3.46 to 17.3 µg/mL) for the second.

`CS(=O)(=O)c1ccc(CNc2nc(N3CCCCC3)nc3ccccc23)cc1` [Compound 94, N-(4-(Methylsulfonyl)benzyl)-2-(piperidin-1-yl)quinazolin-4-amine] and `CC(C)(Cc1ccc(F)cc1)Nc1nc(N2CCCCC2)nc2ccccc12` [Compound 108, N-(1-(4-Fluorophenyl)-2-methylpropan-2-yl)-2-(piperidin-1-yl)quinazolin-4-amine] fall in the same range of MIC: 10 to 50 µM (≈ 3.97 to 19.8 µg/mL) for the first, 10 to 50 µM (≈ 3.78 to 18.9 µg/mL) for the second.

`COc1ccc([C@@H](C)Nc2nc(N3CCCCC3)nc3ccccc23)cc1` [Compound 97, (R)—N-(1-(4-Methoxyphenyl)ethyl)-2-(piperidin-1-yl)quinazolin-4-amine] and `Clc1ccc(CNc2nc(N3CCCCC3)c3ccccc3n2)cc1` [Compound 110, N-(4-Chlorobenzyl)-4-(piperidin-1-yl)quinazolin-2-amine hydrochloride] fall in the same range of MIC: 10 to 50 µM (≈ 3.62 to 18.1 µg/mL) for the first, 10 to 50 µM for the second.

`FC(F)(F)c1ccc(CNc2nc(N3CCCCC3)c3ccccc3n2)cc1` [Compound 109, 4-(Piperidin-1-yl)-N-(4-(trifluoromethyl)benzyl)quinazolin-2-amine hydrochloride] and `Fc1ccc(CNc2nc(N3CCCCC3)c3ccccc3n2)cc1` [Compound 111, N-(4-Fluorobenzyl)-4-(piperidin-1-yl)quinazolin-2-amine hydrochloride] fall in the same range of MIC: 10 to 50 µM for the first, 10 to 50 µM for the second.

— patent US20100317607A1, “USE OF COMPOUNDS FOR PREPARING ANTI-TUBERCULOSIS AGENTS” (INFECTIOUS DISEASE RESEARCH INSTITUTE, priority 2007, published 2010)
